Test results from ChEMBL document CHEMBL5303304, “EUbOPEN Chemogenomics Library - IncuCyte” (2023).

Experiments:
Assay type in all cases: toxicity, cell-based
[1] = test system: U2OS; experiment: Incucyte cell viability with U2OS; conditions: human, 10 µM, compound concentration 10 uM
[2] = test system: HEK-293T; experiment: Incucyte cell viability with HEK293T; conditions: human, 10 µM, compound concentration 10 uM
[3] = test system: Fibroblast; experiment: Incucyte cell viability with human fibroblast; conditions: 10 µM, compound concentration 10 uM
Further: unitless GR value; below 1 slowed growth and below 0 cell loss.

SMILES	Growth Rate ([1]; 0 h, replicate number 1)	Growth Rate ([1]; 6 h, replicate number 1)	Growth Rate ([1]; 24 h, replicate number 1)	Growth Rate ([2]; 0 h, replicate number 1)	Growth Rate ([3]; 0 h, replicate number 2)	Growth Rate ([3]; 6 h, replicate number 2)	Growth Rate ([3]; 12 h, replicate number 1)	Growth Rate ([3]; 12 h, replicate number 2)	Growth Rate ([3]; 18 h, replicate number 1)	Growth Rate ([3]; 18 h, replicate number 2)	Growth Rate ([1]; 0 h, replicate number 2)	Growth Rate ([1]; 6 h, replicate number 2)	Growth Rate ([1]; 18 h, replicate number 1)	Growth Rate ([2]; 18 h, replicate number 2)	Growth Rate ([3]; 0 h, replicate number 1)	Growth Rate ([3]; 6 h, replicate number 1)	Growth Rate ([3]; 24 h, replicate number 1)	Growth Rate ([3]; 24 h, replicate number 2)	Growth Rate ([2]; 6 h, replicate number 1)	Growth Rate ([2]; 24 h, replicate number 1)	other results
CC(=O)O.Cc1cc2c(ncn2C2(C)CN(C(=O)c3ccn(CC4CCN([C@H]5C=CCCCC5)CC4)c3)C2)c(N)n1	0.51	0.96	0.75	-0.66	0.45	0.25	0.9	0.83	0.86	0.98											
C[C@H](CCOc1cccc(CC(=O)O)c1)N(Cc1cccc(C(F)(F)F)c1Cl)CC(c1ccccc1)c1ccccc1.Cl	0.53	0.93	0.93	-0.43		0.01	0.72	0.55	0.83	0.23	-0.96	1	0.83	1	0.93	0.72	0.64	0.52			
COc1ncc2cc(C(=O)Nc3cc(C(=O)NCc4cccc(Cl)c4)ccc3Cl)c(=O)[nH]c2n1					0.35	-0.4	-0.98	0.79	-0.46			0.67		0.64			0.44	0.92	0.22	0.67	Growth Rate ([1]; 18 h, replicate number 2): 0.97; Growth Rate ([1]; 24 h, replicate number 2): 0.97; Growth Rate ([2]; 6 h, replicate number 2): -0.03; Growth Rate ([2]; 12 h, replicate number 1): 0.64; Growth Rate ([2]; 12 h, replicate number 2): 0.55; Growth Rate ([2]; 18 h, replicate number 1): 0.51; Growth Rate ([2]; 24 h, replicate number 2): 0.79
C=CC(=O)N1CCC[C@@H](n2nc(C(=O)Nc3ccc(CC(=O)N(C)C)c(C)c3C)c3c(N)ncnc32)C1				-0.26	-1		-1				-0.77				0.74	-0.17	0.16				Growth Rate ([2]; 0 h, replicate number 2): -0.68
Cc1nnc2n1-c1sc3c(c1C(c1ccccc1Cl)=NC2)C[C@@H](C(=O)N1CCOCC1)C3	0.65	0.49		-0.21				0.81										0.86			Growth Rate ([1]; 12 h, replicate number 1): 0.84; Growth Rate ([2]; 0 h, replicate number 2): -0.7
Nc1ccc(S(=O)(=O)Nc2ccnn2-c2ccccc2)cc1 [SULFAPHENAZOLE]		0.27	0.86				-1				-0.29	0.05	0.83	0.98	-0.67	-0.25	0.6		0.11	0.45	Growth Rate ([1]; 12 h, replicate number 1): 0.83; Growth Rate ([1]; 12 h, replicate number 2): 1; Growth Rate ([1]; 18 h, replicate number 2): 0.88; Growth Rate ([1]; 24 h, replicate number 2): 0.91; Growth Rate ([2]; 12 h, replicate number 1): 0.6; Growth Rate ([2]; 18 h, replicate number 1): 0.44
Cc1cn([C@H](C)CC#N)c(=O)c2cc(Cn3nc(C(F)F)cc3Cl)nn12		0.38	0.64			0.78		0.58		0.99			0.52	0.9	-1	0.89	0.93		0.81	0.97	Growth Rate ([1]; 12 h, replicate number 1): 0.34; Growth Rate ([2]; 6 h, replicate number 2): 0.66; Growth Rate ([2]; 12 h, replicate number 2): 0.82; Growth Rate ([2]; 24 h, replicate number 2): 0.89
